pIC50: −log10 of the molar value.

For the experiment, the target named is T1, sodium-proton exchanger of subtype 3 (NHE3) (Homo sapiens, UniProt P48764).
T1 construct: expressed in transfected cells
T1 sequence (P48764 26-834): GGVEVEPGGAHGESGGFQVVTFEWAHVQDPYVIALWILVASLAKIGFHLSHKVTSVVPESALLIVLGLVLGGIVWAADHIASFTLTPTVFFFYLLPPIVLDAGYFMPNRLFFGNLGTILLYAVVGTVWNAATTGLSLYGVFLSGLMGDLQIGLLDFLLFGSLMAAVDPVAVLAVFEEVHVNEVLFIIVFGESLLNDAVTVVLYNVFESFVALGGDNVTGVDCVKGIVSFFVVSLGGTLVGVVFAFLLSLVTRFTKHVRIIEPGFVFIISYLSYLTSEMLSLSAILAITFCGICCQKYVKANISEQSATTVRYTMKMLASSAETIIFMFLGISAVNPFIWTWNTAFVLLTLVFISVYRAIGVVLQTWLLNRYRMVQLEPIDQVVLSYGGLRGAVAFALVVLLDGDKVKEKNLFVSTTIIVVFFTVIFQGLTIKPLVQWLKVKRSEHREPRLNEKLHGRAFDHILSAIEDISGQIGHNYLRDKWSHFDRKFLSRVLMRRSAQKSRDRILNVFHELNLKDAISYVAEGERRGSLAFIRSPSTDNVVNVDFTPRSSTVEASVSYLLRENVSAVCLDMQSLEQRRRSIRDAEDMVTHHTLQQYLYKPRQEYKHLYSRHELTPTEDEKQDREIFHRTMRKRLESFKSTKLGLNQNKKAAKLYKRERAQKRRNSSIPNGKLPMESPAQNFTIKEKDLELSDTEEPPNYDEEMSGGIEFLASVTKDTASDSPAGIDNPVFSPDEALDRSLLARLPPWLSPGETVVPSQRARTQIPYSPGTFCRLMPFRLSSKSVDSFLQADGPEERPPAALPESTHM
Nature of the experiment: Recovery of intracellular pH (pHi) after acidification in LAP1 cells stably expressing NHE3 (BCECF fluorescence, FLIPR). The experiment is classed as cell-based. Particulars: LAP1 cells stably expressing NHE3; pH recovery after acidification; range 1 is % inhibition at 10 μM; read-out: Activity range (inhibitory effect on NHE3).
As for `Cn1ccn(-c2ccc(F)c(O[C@H]3c4cc(Cl)cc(F)c4C[C@@H]3NC3CCCC3)c2)c1=O` [Example 756, 1-[3-(trans-(1S,2S)-6-Chloro-2-cyclopentylamino-4-fluoro-indan-1-yloxy)-4-fluoro-phenyl]-3-methyl-1,3-dihydro-imidazol-2-one], the pIC50 was 5.00 to 6.00.

For the compound `N#Cc1ccc(O[C@H]2c3ccccc3CC[C@@H]2N2CCOCC2)cc1F` (racemic) [Example 396, 2-fluoro-4-(rac-trans-(1,2)-2-morpholin-4-yl-1,2,3,4-tetrahydronaphthalen-1-yloxy)benzonitrile], the inhibition at 10 µM was 20 to 50%.

For the compound `Cc1ccc(O[C@H]2c3ccccc3CC[C@@H]2N2CCC[C@@H](N)C2)c(Cl)c1` (racemic) [Example 38, (R)-1-[rac-trans-(1,2)-1-(2-chloro-4-methylphenoxy)-1,2,3,4-tetrahydronaphthalen-2-yl]piperidin-3-ylamine], the inhibition at 10 µM was 20 to 50%.

With `NS(=O)(=O)c1ccc(O[C@H]2c3ccccc3C[C@@H]2CN2CCCCC2)c(F)c1` (racemic) [Example 450, 3-fluoro-4-(2-piperidin-1-ylmethylindan-1-yloxy)benzenesulfonamide], the inhibition at 10 µM is 20 to 50%.

Take `N[C@@H]1CCCN([C@H]2CCc3ccccc3[C@@H]2Oc2ccccc2Br)C1` (racemic) [Example 36, (R)-1-[rac-trans-(1,2)-1-(2-bromophenoxy)-1,2,3,4-tetrahydronaphthalen-2-yl]piperidin-3-ylamine]: the inhibition at 10 µM is 20 to 50%.

Turning to `NC(=O)Nc1cccc(O[C@@H]2c3ccccc3C[C@H]2N2CCC(N)C2)c1` (mixture of isomers) [Example 234, {3-[rac-trans-(1,2)-2-(3-aminopyrrolidin-1-yl)indan-1-yloxy]phenyl}urea], the pIC50 is 5.00 to 6.00.

Turning to `CS(=O)(=O)c1ccc(O[C@H]2c3cc(Cl)cc(Cl)c3C[C@@H]2N2CCC(F)(F)CC2)cc1` [Example 250, 1-[(1S,2S)-4,6-dichloro-1-(4-methanesulfonylphenoxy)indan-2-yl]-4,4-difluoropiperidine], the inhibition at 10 µM fell in the range of 20 to 50%.

For `CN1CCN(c2cccc(O[C@H]3c4cc(Cl)cc(Cl)c4C[C@@H]3N3CCNCC3)c2)C1=O` (racemic) [Example 258, 1-[3-(rac-trans-(1,2)-4,6-dichloro-2-piperazin-1-ylindan-1-yloxy)phenyl]-3-methylimidazolidin-2-one], the pIC50 was over 6.00.

As to `Cn1ccn(-c2cccc(O[C@H]3c4ccccc4C[C@@H]3N3CCCC3)c2)c1=O` (racemic) [Example 352, 1-methyl-3-[3-(rac-trans-(1,2)-2-pyrrolidin-1-ylindan-1-yloxy)phenyl]-1,3-dihydroimidazol-2-one], the pIC50 is over 6.00.

Take `N#Cc1ccc(O[C@H]2c3ccccc3CC[C@@H]2N2CCC[C@H](N)C2)cc1` (racemic) [Example 535, 4-[rac-trans-(1,2)-2-((S)-3-aminopiperidin-1-yl)-1,2,3,4-tetrahydronaphthalen-1-yloxy]benzonitrile]: the pIC50 is 5.00 to 6.00.

`Cc1nnc(C)n1-c1ccc(O[C@H]2c3cc(Cl)cc(Cl)c3C[C@@H]2N2CCCC2)c(F)c1` [Example 499, 4-[4-(trans-(1S,2S)-4,6-dichloro-2-pyrrolidin-1-ylindan-1-yloxy)-3-fluorophenyl]-3,5-dimethyl-4H-[1,2,4]triazole]: the pIC50 was over 6.00.

For `Fc1ccc(O[C@H]2c3cc(Cl)cc(Cl)c3C[C@@H]2N2CCNCC2)c2ncccc12` [Example 592, 8-((1S,2S)-4,6-dichloro-2-piperazin-1-ylindan-1-yloxy)-5-fluoroquinoline], the inhibition at 10 µM fell in the range of 20 to 50%.

Turning to `CN(c1ccc(O[C@H]2c3cc(Cl)cc(Cl)c3C[C@@H]2N2CC[C@@H](O)C2)cc1)S(C)(=O)=O` [Example 698, N-{4-[(1S,2S)-4,6-dichloro-2-((R)-3-hydroxypyrrolidin-1-yl)indan-1-yloxy]phenyl}-N-methylmethanesulfonamide], the pIC50 was over 6.00.

Regarding `N[C@@H]1CCCN([C@@H]2Cc3c(Cl)cc(Cl)cc3[C@H]2Oc2ccccc2)C1` [Example 23, (R)-1-(trans-(1R,2R)-4,6-dichloro-1-phenoxyindan-2-yl)piperidin-3-ylamine], the pIC50 is 5.00 to 6.00.

For the compound `Cc1nnc(C)n1-c1ccc(O[C@H]2c3cc(Cl)cc(Cl)c3C[C@@H]2N2CCOCC2)c(F)c1` [Example 564, 4-{trans-(1S,2S)-4,6-dichloro-1-[4-(3,5-dimethyl-[1,2,4]triazol-4-yl)-2-fluorophenoxy]indan-2-yl}morpholine], the pIC50 is over 6.00.

In the case of `O=C(O[C@H]1c2ccccc2C[C@@H]1N1CCCC1)c1ccc(N2C(=O)CCC2=O)cc1` [Example 458, 4-(2,5-dioxopyrrolidin-1-yl)benzoic acid (1S,2S)-2-pyrrolidin-1-ylindan-1-yl ester], the inhibition at 10 µM lay in the range of 20 to 50%.

Take `Cc1nnc(C)n1-c1ccc(O[C@H]2c3ccccc3C[C@@H]2N2CCCC2)c(C(F)(F)F)c1` [Example 406, 3,5-dimethyl-4-[4-(trans-(1S,2S)-2-pyrrolidin-1-ylindan-1-yloxy)-3-trifluoromethylphenyl]-4H-[1,2,4]triazole]: the pIC50 was over 6.00.

Consider `NS(=O)(=O)c1ccc(O[C@H]2c3cc(Cl)cc(Cl)c3C[C@@H]2N2CCS(=O)(=O)CC2)cc1` [Example 483, 4-[(1S,2S)-4,6-dichloro-2-(1,1-dioxo-1lambda6-thiomorpholin-4-yl)indan-1-yloxy]benzenesulfonamide], for which the pIC50 was over 6.00.

With `N#Cc1ccc(O[C@H]2c3ccccc3CC[C@@H]2N2CCC[C@@H](N)C2)c(F)c1` (racemic) [Example 515, 4-[rac-trans-(1,2)-2-((R)-3-aminopiperidin-1-yl)-1,2,3,4-tetrahydronaphthalen-1-yloxy]-3-fluorobenzonitrile], the pIC50 is 5.00 to 6.00.

In the case of `CS(=O)(=O)c1ccc(O[C@H]2c3cc(Cl)cc(F)c3C[C@@H]2N2CCNCC2)cc1` (racemic) [Example 292, 1-[rac-trans-(1,2)-6-chloro-4-fluoro-1-(4-methanesulfonylphenoxy)indan-2-yl]piperazine], the pIC50 was over 6.00.

`N#Cc1c(F)cccc1O[C@@H]1c2ccccc2C[C@H]1N1C[C@H]2CNC[C@H]2C1` (racemic) [Example 398, 2-fluoro-6-[rac-trans-(1,2)-2-(hexahydropyrrolo[3,4-c]pyrrol-2-yl)indan-1-yloxy]benzonitrile]: the pIC50 is 5.00 to 6.00.

As to `N[C@@H]1CCCN([C@H]2CCc3ccccc3[C@@H]2Oc2ccccc2OC(F)(F)F)C1` (racemic) [Example 50, (R)-1-[rac-trans-(1,2)-1-(2-trifluoromethoxyphenoxy)-1,2,3,4-tetrahydronaphthalen-2-yl]piperidin-3-ylamine], the inhibition at 10 µM fell in the range of 20 to 50%.

On to `CC(=O)Nc1cccc(O[C@H]2c3cc(F)cc(Cl)c3C[C@@H]2N2CCNCC2)c1` (racemic) [Example 650, N-[3-(rac-trans-(1,2)-4-chloro-6-fluoro-2-piperazin-1-ylindan-1-yloxy)phenyl]acetamide], for which the pIC50 is over 6.00.

As for `Cc1ccc(O[C@@H]2c3ccccc3C[C@H]2N2C[C@H]3CNC[C@H]3C2)c(Br)c1` (racemic) [Example 10, 2-[rac-trans-(1,2)-1-(2-bromo-4-methylphenoxy)indan-2-yl]octahydropyrrolo[3,4-c]pyrrole], the pIC50 was 5.00 to 6.00.

On to `Cc1nnc(C)n1-c1ccc(O[C@H]2c3cc(Cl)cc(Cl)c3C[C@@H]2N2CCCN(C)CC2)c(F)c1` [Example 346, 1-{trans-(1S,2S)-4,6-dichloro-1-[4-(3,5-dimethyl-[1,2,4]triazol-4-yl)-2-fluorophenoxy]indan-2-yl}-4-methyl-[1,4]diazepane], for which the pIC50 was over 6.00.

For `O=C1COCC(=O)N1c1ccc(O[C@H]2c3cc(Cl)cc(Cl)c3C[C@@H]2N2CC[C@@H](O)C2)c(F)c1` [Example 560, 4-{4-[(1S,2S)-4,6-dichloro-2-((R)-3-hydroxypyrrolidin-1-yl)indan-1-yloxy]-3-fluorophenyl}morpholine-3,5-dione], the pIC50 was over 6.00.

For the compound `CS(=O)(=O)c1ccc(O[C@H]2c3c(ccc(Cl)c3Cl)C[C@@H]2N2CCCNCC2)cc1` (racemic) [Example 288, 1-[rac-trans-(1,2)-6,7-dichloro-1-(4-methanesulfonylphenoxy)indan-2-yl]-[1,4]diazepane], the pIC50 is over 6.00.

For the compound `O=C1CSC(=O)N1c1ccc(O[C@H]2c3cc(Cl)cc(Cl)c3C[C@@H]2N2CC[C@@H](O)C2)cc1` [Example 428, 3-{4-[(1S,2S)-4,6-dichloro-2-((R)-3-hydroxypyrrolidin-1-yl)indan-1-yloxy]phenyl}thiazolidine-2,4-dione], the pIC50 is over 6.00.

As for `CCN(CC)[C@@H]1Cc2ccccc2[C@H]1Oc1cccc(NC(N)=O)c1` (racemic) [Example 212, [3-(rac-trans-(1,2)-2-diethylaminoindan-1-yloxy)phenyl]-urea], the pIC50 was 5.00 to 6.00.

These data come from US8822449B2, “Substituted aminoindanes and analogs thereof, and the pharmaceutical use thereof” (Sanofi, priority 2008, dated 2014).
